According to patent publication US20080145313A1, “Compositions and Methods for the Treatment and Prevention of Neoplastic Disorders” (Genesis Research & Development Corporation Limited, priority 2006, published 2008):

system: A549 cells; experiment: Growth inhibition of siRNA-transfected A549 cells, SYBR Green I DNA content; assay type: cell-based, human; details: 10 nM siRNA; DNA content 96 hours after transfection
Procedure, shortened: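 Growth read-out: cellular DNA quantified with SYBR Green I (485/535 nm) 96 h after transfection, cells frozen, thawed and lysed in PBS/1% Triton X-100, pH 7. Cells (A549, 5×10^3 cells/cm^2) received 10 nM siRNA by RNAiMAX; non-specific siRNA served as control; triplicate wells averaged.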

Substance	Growth Inhibition in A549 cells
SEQ ID NO: 4876: siRNA targeting CTPS (chain 1 ATAAAGGGCATGCTTTCTATGTCCC; chain 2 AUAAAGGGCAUGCUUUCUAUGUCCC; Both strands are one antisense strand in DNA/RNA notation, chemistry not given here, further chemistry not given here; one strand in two spellings)	− (no growth inhibition with any siRNA)
SEQ ID NO: 4850: siRNA targeting COX5A (chain 1 ATTTAAAGTTGGTCTAAGTTCCTGG; chain 2 AUUUAAAGUUGGUCUAAGUUCCUGG; chemistry not given here; one strand in two spellings)	− (no growth inhibition with any siRNA)
SEQ ID NO: 4990: siRNA targeting TK1 (chain 1 GACATCATGGAGTTCTGCGAGGCCA; chain 2 GACAUCAUGGAGUUCUGCGAGGCCA; chemistry not given here; one strand in two spellings)	− (no growth inhibition with any siRNA)
SEQ ID NO: 4837: siRNA targeting DHFR (chain 1 TTTCAAAGTCTTGCATGATCCTTGT; chain 2 UUUCAAAGUCUUGCAUGAUCCUUGU; chemistry not given here; one strand in two spellings)	− (no growth inhibition with any siRNA)
SEQ ID NO: 5000: siRNA targeting UMPS (chain 1 GCTGTTGCAGCTAGCAGATGCTTTA; chain 2 GCUGUUGCAGCUAGCAGAUGCUUUA; chemistry not given here; one strand in two spellings)	− (no growth inhibition with any siRNA)
SEQ ID NO: 4852: siRNA targeting ATP5B (chain 1 AATCATTGCCTTCACGGGTCCTCTC; chain 2 AAUCAUUGCCUUCACGGGUCCUCUC; Both strands are one antisense strand in DNA/RNA notation, chemistry not given here, further chemistry not given here; one strand in two spellings)	− (no growth inhibition with any siRNA)
SEQ ID NO: 5003: siRNA targeting DPYD (chain 1 GGCTACAAAGCTGCTTTCATTGGAA; chain 2 GGCUACAAAGCUGCUUUCAUUGGAA; chemistry not given here; one strand in two spellings)	− (no growth inhibition with any siRNA)
SEQ ID NO: 4840: siRNA targeting AK1 (chain 1 TAGCCATCAATCAGGAAGCCTTTGG; chain 2 UAGCCAUCAAUCAGGAAGCCUUUGG; chemistry not given here; one strand in two spellings)	+ (inhibits by at least 50%)
SEQ ID NO: 4844: siRNA targeting NADSYN (chain 1 TTTCTATGCACCGAAACTGCCAAGG; chain 2 UUUCUAUGCACCGAAACUGCCAAGG; chemistry not given here; one strand in two spellings)	− (no growth inhibition with any siRNA)
SEQ ID NO: 4808: siRNA targeting ARNT (HIF-1β) (chain 1 TCTCATGGAAGACTGCTGACCTTCC; chain 2 UCUCAUGGAAGACUGCUGACCUUCC; chemistry not given here; one strand in two spellings)	− (no growth inhibition with any siRNA)
SEQ ID NO: 4839: siRNA targeting AK1 (chain 1 TTCTGCACGATCTTCTCACACTGGG; chain 2 UUCUGCACGAUCUUCUCACACUGGG; chemistry not given here; one strand in two spellings)	− (no growth inhibition with any siRNA)
SEQ ID NO: 4874: siRNA targeting RRM2B (chain 1 TATCTGTGGTTTCTGCCATAACTGC; chain 2 UAUCUGUGGUUUCUGCCAUAACUGC; Both strands are one antisense strand in DNA/RNA notation, chemistry not given here, further chemistry not given here; one strand in two spellings)	− (no growth inhibition with any siRNA)
SEQ ID NO: 4866: siRNA targeting UQCRC2 (chain 1 ACACCAAGTCCAATCAAAGCCATTC; chain 2 ACACCAAGUCCAAUCAAAGCCAUUC; Both strands are one antisense strand in DNA/RNA notation, chemistry not given here, further chemistry not given here; one strand in two spellings)	− (no growth inhibition with any siRNA)
SEQ ID NO: 4838: siRNA targeting DHFR (chain 1 TTCTGGCAGAAGTTTATATTTCTCC; chain 2 UUCUGGCAGAAGUUUAUAUUUCUCC; chemistry not given here; one strand in two spellings)	+ (inhibits by at least 50%)
SEQ ID NO: 4991: siRNA targeting TK1 (chain 1 GCACTGGATGGGACCTTCCAGAGGA; chain 2 GCACUGGAUGGGACCUUCCAGAGGA; chemistry not given here; one strand in two spellings)	− (no growth inhibition with any siRNA)
SEQ ID NO: 4859: siRNA targeting ACLY (chain 1 TACAGATGAACTTGTAAAGGAGTTC; chain 2 UACAGAUGAACUUGUAAAGGAGUUC; Both strands are one antisense strand in DNA/RNA notation, chemistry not given here, further chemistry not given here; one strand in two spellings)	− (no growth inhibition with any siRNA)
SEQ ID NO: 4992: siRNA targeting TK2 (chain 1 GGGATCGAATATTAACTCCAGAGAA; chain 2 GGGAUCGAAUAUUAACUCCAGAGAA; chemistry not given here; one strand in two spellings)	− (no growth inhibition with any siRNA)
SEQ ID NO: 4878: siRNA targeting IMPDH2 (chain 1 AAATTTGTGGATTGACCCTTTGTCC; chain 2 AAAUUUGUGGAUUGACCCUUUGUCC; Both strands are one antisense strand in DNA/RNA notation, chemistry not given here, further chemistry not given here; one strand in two spellings)	− (no growth inhibition with any siRNA)
SEQ ID NO: 4987: siRNA targeting DCK (chain 1 CAAGACTGGCATGACTGGATGAATA; chain 2 CAAGACUGGCAUGACUGGAUGAAUA; Both strands are one antisense strand in DNA/RNA notation, chemistry not given here, further chemistry not given here; one strand in two spellings)	− (no growth inhibition with any siRNA)
SEQ ID NO: 4872: siRNA targeting RRM2B (chain 1 TTTGACAGCATCAACAATGATCTCC; chain 2 UUUGACAGCAUCAACAAUGAUCUCC; Both strands are one antisense strand in DNA/RNA notation, chemistry not given here, further chemistry not given here; one strand in two spellings)	− (no growth inhibition with any siRNA)
SEQ ID NO: 4814: siRNA targeting HK-II (chain 1 TTAACAATGATGCTGTCGTCACAGG; chain 2 UUAACAAUGAUGCUGUCGUCACAGG; chemistry not given here; one strand in two spellings)	− (no growth inhibition with any siRNA)
SEQ ID NO: 4806: siRNA targeting ARNT (HIF-1β) (chain 1 ATCAGTGGATGTGTTGCCAGTTCCC; chain 2 AUCAGUGGAUGUGUUGCCAGUUCCC; chemistry not given here; one strand in two spellings)	− (no growth inhibition with any siRNA)
SEQ ID NO: 4862: siRNA targeting SLC25A5 (ANT2) (chain 1 AGAACATTGGACCATGCACCCTTGA; chain 2 AGAACAUUGGACCAUGCACCCUUGA; Both strands are one antisense strand in DNA/RNA notation, chemistry not given here, further chemistry not given here; one strand in two spellings)	− (no growth inhibition with any siRNA)

same assay, conditions: 10 nM siRNA; up to 120 hours post-transfection (FIG. 8)

Substance	growth inhibition, A549
SEQ ID NO: 4872: siRNA targeting RRM2B (chain 1 TTTGACAGCATCAACAATGATCTCC; chain 2 UUUGACAGCAUCAACAAUGAUCUCC; Both strands are one antisense strand in DNA/RNA notation, chemistry not given here, further chemistry not given here; one strand in two spellings)	No inhibition of growth

same assay, conditions: A549 cells, 10 nM siRNA, DNA content 96 hours after transfection, transporter gene targets

Substance	Growth Inhibition in A549 cells by 10 nM siRNA
SEQ ID NO: 4979: siRNA targeting ABCB1 (MDR1) (chain 1 TAATTATTCCTGTCCCAAGATTTGC; chain 2 UAAUUAUUCCUGUCCCAAGAUUUGC; chemistry not given here; one strand in two spellings)	− (no growth inhibition)
SEQ ID NO: 4951: siRNA targeting ATP6V1A (chain 1 AAATGGCTCCCATAATGCCAGGACC; chain 2 AAAUGGCUCCCAUAAUGCCAGGACC; chemistry not given here; one strand in two spellings)	+ (inhibits by at least 50%)
SEQ ID NO: 4980: siRNA targeting ABCB1 (MDR1) (chain 1 TTCACCAAATGTGACATTTCCTTCC; chain 2 UUCACCAAAUGUGACAUUUCCUUCC; chemistry not given here; one strand in two spellings)	− (no growth inhibition)
SEQ ID NO: 4944: siRNA targeting ATP2B3 (PMCA3) (chain 1 AAAGCTTGTCTTCCGGGATCTGCTC; chain 2 AAAGCUUGUCUUCCGGGAUCUGCUC; chemistry not given here; one strand in two spellings)	− (no growth inhibition)
